# The supplement of paper PMC11061612
# Key:
# [1] = test system: CAL-39 (Other Solid Carcinomas); test: Bliss excess, mean over the matrix (fraction); higher = more synergy
# Method in brief: (§1)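 Cell lines in DMEM/F12 or RPMI with 10% FBS were plated in 1536-well plates, held 24 hours at 37°C, 5% CO2, then given two-drug dose matrices for 72 hours (DMSO typically 0.2%). Viability was read by CellTiter-Glo 2.0 luminescence and scaled as inhibition from 0 (vehicle wells) to 1 (blank wells). Combination Emax is the second-highest inhibition in the matrix; Bliss excess is observed combination effect minus expected EA + EB − EA·EB, EA and EB being single-agent effects.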
# [2] = test system: D-283MED (Other Solid Carcinomas); test: as above
# Method in brief: as §1
# [3] = test system: EKVX (Non-Small Cell Lung Carcinoma); test: as above
# Method in brief: as §1
# [4] = test system: HCT-116 (Colorectal Carcinoma); test: as above
# Method in brief: as §1
# [5] = test system: NCI-H1688 (Small Cell Lung Carcinoma); test: as above
# Method in brief: as §1
# [6] = test system: P31-FUJ (Acute Myeloid Leukemia); test: as above
# Method in brief: as §1
# [7] = test system: SK-UT-1 (Other Solid Carcinomas); test: as above
# Method in brief: as §1
# [8] = test system: SLVL (B-Cell Non-Hodgkin's Lymphoma); test: as above
# Method in brief: as §1
# [9] = test system: SW48 (Colorectal Carcinoma); test: as above
# Method in brief: as §1
# Saos-2 (Osteosarcoma) = test: as above
# Method in brief: as §1
# [10] = test system: U-118-MG (Low Grade Glioma); test: as above
# Method in brief: as §1
# [11] = test system: WSU-DLCL2 (B-Cell Non-Hodgkin's Lymphoma); test: as above
# Method in brief: as §1
# [12] = test system: FU-OV-1 (Ovarian Carcinoma); test: as above
# Method in brief: as §1
# [13] = test system: TC-YIK (Other Solid Carcinomas); test: as above
# Method in brief: as §1
# [14] = test system: FU-OV-1 (Ovarian Carcinoma); test: combination Emax (second highest fraction inhibited in the dose matrix, 72 h); higher = more inhibition; extreme values may be limits of the assay
# Method in brief: as §1
# [15] = test system: TC-YIK (Other Solid Carcinomas); test: as above
# Method in brief: as §1
# 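Wherever Bliss excess, mean over the matrix is given: after 72 h of two-drug dosing.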
Compound,Bliss excess [1],Bliss excess [2],Bliss excess [3],Bliss excess [4],Bliss excess [5],Bliss excess [6],Bliss excess [7],Bliss excess [8],Bliss excess [9],Bliss excess (Saos-2 (Osteosarcoma)),Bliss excess [10],Bliss excess [11],Bliss excess [12],Bliss excess [13],combination Emax [14],combination Emax [15]
"CN(C)CCCOc1ccc(-c2ccc3ncc4c(c3c2)n(C2CCOCC2)c(=O)n4C)cn1 [AZD0156] + C=CCn1c(=O)c2cnc(Nc3ccc(N4CCN(C)CC4)cc3)nc2n1-c1cccc(C(C)(C)O)n1 [AZD1775] (first compound max 1 µM, partner max 1 µM)",-0.0326,-0.0408,-0.0358,-0.0016,-0.0033,0.0046,-0.0346,-0.0203,-0.0172,-0.0379,-0.0322,-0.0119,,,,
"CN(C)CCCOc1ccc(-c2ccc3ncc4c(c3c2)n(C2CCOCC2)c(=O)n4C)cn1 [AZD0156] + CCN(CCO)CCCOc1ccc2c(Nc3cc(CC(=O)Nc4cccc(F)c4)[nH]n3)ncnc2c1 [AZD2811] (first compound max 1 µM, 7x7, partner max 1 µM)",0.0177,0.02,-0.0473,0.0233,0.0018,-0.0314,0.0253,-0.0768,-0.0164,0.0088,0.0017,0.0362,,,,
"CN(C)CCCOc1ccc(-c2ccc3ncc4c(c3c2)n(C2CCOCC2)c(=O)n4C)cn1 [AZD0156] + C[C@@H]1COCCN1C2=NC(=NC(=C2)C3(CC3)[S@](=N)(=O)C)C4=C5C=CNC5=NC=C4 [AZD6738] (first compound max 1 µM, 7x7, partner max 10 µM)",0.0017,0.0357,-0.0388,-0.0047,-0.0004,-0.0462,0.0126,-0.0134,-0.0043,-0.0133,0.0189,0.0712,,,,
"Cc1c2c(nn1C)CSCc1cc(n(C)n1)CSc1cc(c3ccccc3c1)OCCCc1c(C(=O)O)n(C)c3c-2c(Cl)ccc13 [AZD5991] + C=CCn1c(=O)c2cnc(Nc3ccc(N4CCN(C)CC4)cc3)nc2n1-c1cccc(C(C)(C)O)n1 [AZD1775] (first compound max 1 µM, partner max 1 µM)",0.0957,-0.0583,0.0335,0.0226,-0.0502,-0.0127,-0.0534,-0.0346,-0.0318,,-0.0014,-0.0245,,,,
"C[C@@H]1COCCN1c1cc(C2([S@](C)(=N)=O)CC2)nc(-c2ccnc3[nH]ccc23)n1 [AZD6738] + O=C(c1cc(Cc2n[nH]c(=O)c3ccccc23)ccc1F)N1CCN(C(=O)C2CC2)CC1 [Olaparib] (first compound max 10 µM, 7x7, partner max 10 µM)",,-0.0148,0.0206,0.0928,0.0133,-0.0848,0.0408,-0.0355,-0.0367,0.0118,0.0125,-0.0119,,,,
"NC1(C(=O)N[C@@H](CCO)c2ccc(Cl)cc2)CCN(c2ncnc3[nH]ccc23)CC1 [Capivasertib] + Cn1cnc2c(F)c(Nc3ccc(Br)cc3Cl)c(C(=O)NOCCO)cc21 [Selumetinib] (first compound max 10 µM, 7x7, partner max 10 µM)",-0.019,0.0855,,0.0512,0.0549,0.0376,0.0843,-0.0251,-0.0453,0.0087,0.0071,-0.0006,-0.0316,0.0245,0.592,0.496
"COc1cc2ncnc(Nc3ccc(F)c(Cl)c3)c2cc1OCCCN1CCOCC1 [Gefitinib] + CC(C)n1c(=O)n(C)c2cnc3cc(F)c(-c4ccc(OCCCN5CCCCC5)nc4)cc3c21 [AZD1390] (first compound max 10 µM, 7x7, partner max 0.3 µM)",-0.0004,-0.0426,,-0.0453,-0.0626,-0.0201,-0.0319,-0.0591,-0.0516,-0.0621,-0.0498,0.0143,-0.0717,-0.046,0.296,0.188
"CS(=O)(=O)CCNCc1ccc(-c2ccc3ncnc(Nc4ccc(OCc5cccc(F)c5)c(Cl)c4)c3c2)o1 [Lapatinib] + C[C@@H](Oc1cc(-c2cnn(C3CCNCC3)c2)cnc1N)c1c(Cl)ccc(F)c1Cl [Crizotinib] (first compound max 10 µM, 7x7, partner max 10 µM)",0.026,-0.0496,,-0.0748,-0.0764,-0.142,-0.0392,-0.0518,-0.0662,-0.0452,-0.0194,-0.0162,-0.0304,-0.0828,0.696,0.957
"CC(=O)c1c(C)c2cnc(Nc3ccc(N4CCNCC4)cn3)nc2n(C2CCCC2)c1=O [Palbociclib] + CC1(C)CCC(CN2CCN(c3ccc(C(=O)NS(=O)(=O)c4ccc(NCC5CCOCC5)c([N+](=O)[O-])c4)c(Oc4cnc5[nH]ccc5c4)c3)CC2)=C(c2ccc(Cl)cc2)C1 [Venetoclax] (first compound max 10 µM, 7x7, partner max 1 µM)",-0.0566,0.0132,,-0.0285,-0.0505,-0.073,-0.0343,-0.0892,-0.0251,-0.0417,0.0308,0.0277,-0.0496,-0.0713,0.175,0.534
